# Values of other authors, collected in patent publication US20060009471A1, “Amido compounds and their use as pharmaceuticals” (priority 2004, published 2006).
# Biological target: T1, 11βHSD1 in the eye (Homo sapiens, UniProt P28845)
# T1 construct: host or cells: eye (non-pigmented epithelial cells) of healthy volunteers, in vivo
# Conditions: healthy volunteers, after seven days of carbenoxolone treatment
# T1 sequence (P28845 whole entry): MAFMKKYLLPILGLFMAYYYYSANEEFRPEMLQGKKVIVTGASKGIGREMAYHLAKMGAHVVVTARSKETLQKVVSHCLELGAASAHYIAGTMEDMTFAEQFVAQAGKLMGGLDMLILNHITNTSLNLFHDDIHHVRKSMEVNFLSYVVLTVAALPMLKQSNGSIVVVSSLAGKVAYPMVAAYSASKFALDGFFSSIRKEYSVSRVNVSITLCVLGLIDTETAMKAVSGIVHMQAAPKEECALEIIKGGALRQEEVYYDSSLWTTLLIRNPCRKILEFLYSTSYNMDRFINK
structure (smiles),measurement,value
CC1(C)[C@@H](OC(=O)CCC(=O)O)CC[C@]2(C)[C@H]3C(=O)C=C4[C@@H]5C[C@@](C)(C(=O)O)CC[C@]5(C)CC[C@@]4(C)[C@]3(C)CC[C@@H]12 [carbenoxolone],IOP reduced,18%
